Counter-ions that a name gives are not always drawn. Blank lines part the entries; values can stand above or below the compound they belong to.
Experiments:
[1] = system: thoracic aorta; test: Vasorelaxant effect on isolated vessels (rat thoracic aorta rings without endothelium, precontracted with noradrenalin); design: species or system Wistar rats; conditions: for Emax: Rattus norvegicus, maximum inhibition of noradrenalin effect, 10^-8 to 10^-4 M substance, read-out: Maximum Relaxation; for IC50: rat aorta, 10^-7 M noradrenalin contraction
Method in brief: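 Endothelium-denuded thoracic aorta rings from Wistar rats, held in Krebs-Ringer buffer (pH 7.4, 37 °C, 95% O2/5% CO2) under isometric tension and precontracted with 10^-7 M noradrenalin, received cumulative compound (10^-8 to 10^-4 M). Maximum relaxation given as percent; IC50 calculated when relaxation exceeded 50%.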

[2] = system: anesthetised pigs; test: Haemodynamic effects on anesthetised pigs; type: in vivo, pigs ("German land" race)
Procedure: Haemodynamic effects of the compounds according to the invention on anesthetised pigs or dogs
Pigs are of "German land" race (20-26 kg) and are used after fasting overnight.
In the case of pigs, sedation, analgesia and anesthesia are induced by ketamine HCl (20 mg/kg i.m.), methonidate HCl (10 mg/kg i.m.), xylacine HCl (3 mg/kg i.m.) and sodium pentobarbitol (25-30 mg/kg as bolus i.v. or 0.16 mg/kg/min as i.v. perfusion).
The pigs or dogs are placed under artificial respiration in ambient air. Analysis of the blood gases (pO2, pCO2) is carried out at regular intervals and oxygen can be supplied via the respirator, if necessary.
The haemodynamic parameters recorded include the left ventricular pressure (LVP; Millar PC350 Tip catheter inserted via the carotid artery), systemic blood pressure (BPs, BPd; full catheter in a femoral artery), the end pressure of the left ventricular diastole (LVEDP), the ventricular contractility (LVPdp/dtmax) and the heart rate (HR).
The haemodynamic variables are recorded continuously for 1 to 3 hours, as a function of the period of action of the compound.
The effects of the compounds studied are shown as the absolute difference with respect to the base value (bv) measured before administration of the compounds and are shown in Table VII (a,b,c).
An antianginal activity is estimated by a fall in the BPs and the LVEDP (fall in venous return).

[3] = system: isolated pulmonary vessel; test: Relaxant activity on blood vessels isolated from guinea pigs (pulmonary artery); conditions: Cavia porcellus; guinea pig pulmonary artery, K+ depolarised, Ca2+ contraction; read-out: IC50 (relaxation of 50%)
Procedure: Determination of the relaxant activity of the compounds according to the invention on blood vessels isolated from guinea pigs.
The pulmonary artery of male guinea pigs (350-500 g) is isolated and cut into spiral tracts (1 mm wide, 15 mm long). […] After having removed the calcium from the tissues (Tyrode without calcium and 0.2 mM EDTA), the tracts are depolarised in the presence of a concentrated solution of K^+ ions (40 mM), which is produced by replacing the NaCl by equimolar amounts of KCl, and a contraction of long duration is then induced by Ca^2+ ions (0.5 mM).
The compounds studied are then introduced into the organ cell in increasing concentrations.
Each compound is tested on at least four vessel spiral tracts.

[4] = system: anesthetised dogs; test: Haemodynamic effects on anesthetised dogs; type: in vivo, dogs (labrador/harrier cross); conditions: dogs
Method in brief: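 Anaesthetised labrador/harrier dogs (16–26 kg; pentobarbital induction then 8 mg/kg/h i.v. infusion, artificial respiration) given compound i.d. or i.v. after ~45 min equilibration. LVP, systolic/diastolic BP, LVEDP, LVdP/dtmax and HR recorded continuously 1–3 h; values are absolute change from pre-dose baseline.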

SMILES: O=C(O[C@@H]1CO[C@H]2[C@@H]1OC[C@@H]2O[N+](=O)[O-])c1ccccc1SSc1ccccc1C(=O)O[C@@H]1CO[C@H]2[C@@H]1OC[C@@H]2O[N+](=O)[O-] [Compound 29, Bis[5-O-[(2-thio)benzoyl]-2-O-nitro-1,4:3,6-dianhydro-D-glucitol]]
BPs (min), period of action ([2]; pigs, 3 mg/kg i.v.): 10 min
BPs, difference to base value ([2]; pigs, 3 mg/kg i.v.): -42 mmHg
LVRDP (min), period of action ([2]; pigs, 3 mg/kg i.v.): 16 min
LVRDP, difference to base value ([2]; pigs, 3 mg/kg i.v.): -2,0 mmHg

SMILES: CC(=O)NCSc1ccccc1C(=O)O[C@H]1CO[C@H]2[C@@H]1OC[C@H]2O[N+](=O)[O-] [Compound 23]
BPs, difference to base value ([2]; pigs, 10,0 mg/kg i.d.): 0 mmHg
LVRDP, difference to base value ([2]; pigs, 10,0 mg/kg i.d.): 0 mmHg

SMILES: O=C(CNC(=O)c1ccccc1SCc1ccccc1)N[C@H]1CO[C@H]2[C@@H]1OC[C@@H]2O[N+](=O)[O-] [Compound 47, 5-[[[[2-[(Phenylmethyl)thio]benzoyl]amino]-1-oxoethyl]amino]-5-deoxy-2-O-nitro-1,4:3,6-dianhydro-L-iditol]
BPs (min), period of action ([2]; pigs, 10,0 mg/kg i.d.): > 120 min
BPs, difference to base value ([2]; pigs, 10,0 mg/kg i.d.): -10 mmHg
LVRDP (min), period of action ([2]; pigs, 10,0 mg/kg i.d.): > 90 min
LVRDP, difference to base value ([2]; pigs, 10,0 mg/kg i.d.): -1,0 mmHg
IC50 [3]: 2 µM

SMILES: CC(=O)NCSC[C@H](NC(=O)OC(C)(C)C)C(=O)N[C@H]1CO[C@H]2[C@@H]1OC[C@@H]2O[N+](=O)[O-] [Compound 33, S-[(Acetylamino)methyl]-N-[(t-butoxy)carbonyl]-L-cysteine amide of 5-amino-5-deoxy-2-O-nitro-1,4:3,6-dianhydro-L-iditol]
Emax [1]: 50%
IC50 [1]: > 100 µM
BPs (min), period of action ([2]; pigs, 10,0 mg/kg i.d.): > 60 min
BPs, difference to base value ([2]; pigs, 10,0 mg/kg i.d.): -12 mmHg
LVRDP (min), period of action ([2]; pigs, 10,0 mg/kg i.d.): > 60 min
LVRDP, difference to base value ([2]; pigs, 10,0 mg/kg i.d.): -3,0 mmHg

SMILES: CC(=O)NCSC[C@H](NC(=O)OC(C)(C)C)C(=O)O[C@H]1CO[C@H]2[C@@H]1OC[C@H]2O[N+](=O)[O-] [Compound 20, S-[(Acetylamino)methyl]-N-[(t-butoxy)carbonyl]-L-cysteine ester of 5-O-nitro-1,4:3,6-dianhydro-D-glucitol]
Emax [1]: 85%
IC50 [1]: 28 µM
BPs (min), period of action ([2]; pigs, 10 mg/kg i.v.): 5 min
BPs, difference to base value ([2]; pigs, 10 mg/kg i.v.): -20 mmHg
LVRDP (min), period of action ([2]; pigs, 10 mg/kg i.v.): 5 min
LVRDP, difference to base value ([2]; pigs, 10 mg/kg i.v.): -4,0 mmHg

SMILES: CC(=O)NCSC[C@H](NC(=O)OC(C)(C)C)C(=O)O[C@@H]1CO[C@H]2[C@@H]1OC[C@@H]2O[N+](=O)[O-] [Compound 26, S-[(Acetylamino)methyl]-N-[(t-butoxy)carbonyl]-L-cysteine ester of 2-O-nitro-1,4:3,6-dianhydro-D-glucitol]
Emax [1]: 70%
IC50 [1]: 80 µM
BPs (min), period of action ([4]; 10 mg/kg i.v.): > 90 min
BPs, difference to base value ([4]; 10 mg/kg i.v.): -10 mmHg
LVEDP (min), period of action ([4]; 10 mg/kg i.v.): > 90 min
LVEDP, difference to base value ([4]; 10 mg/kg i.v.): 2,0 mmHg

SMILES: CC(C)(C)OC(=O)NCC(=O)O[C@H]1CO[C@H]2[C@@H]1OC[C@H]2O[N+](=O)[O-] [Compound 1, N-[(t-Butoxy)carbonyl]glycine ester of 5-O-nitro-1,4:3,6-dianhydro-D-glucitol]
Emax [1]: 83%
IC50 [1]: 32 µM
BPs (min), period of action ([4]; 3 mg/kg i.v.): 10 min
BPs, difference to base value ([4]; 3 mg/kg i.v.): 5 mmHg
LVEDP (min), period of action ([4]; 3 mg/kg i.v.): 10 min
LVEDP, difference to base value ([4]; 3 mg/kg i.v.): 1,0 mmHg

Continued, in another order:

IC50 [1]: 25 µM
SMILES: CC1(C)SC[C@@H](C(=O)N[C@H]2CO[C@H]3[C@@H]2OC[C@@H]3O[N+](=O)[O-])N1C=O [Compound 31, 5-[[(3-Formyl-2,2-dimethyl-4-L-thiazolidinyl)carbonyl]amino]-5-deoxy-2-O-nitro-1,4:3,6-dianhydro-L-iditol monohydrochloride]
Emax [1]: 83%
BPs (min), period of action ([2]; pigs, 10,0 mg/kg i.d.): > 60 min
BPs, difference to base value ([2]; pigs, 10,0 mg/kg i.d.): -15 mmHg
LVRDP (min), period of action ([2]; pigs, 10,0 mg/kg i.d.): > 60 min
LVRDP, difference to base value ([2]; pigs, 10,0 mg/kg i.d.): -2,0 mmHg

IC50 [1]: 20 µM
IC50 [3]: 6 µM
SMILES: O=C(CNC(=O)OCc1ccccc1)N[C@H]1CO[C@H]2[C@@H]1OC[C@@H]2O[N+](=O)[O-] [Compound 4, N-[(Benzyloxy)carbonyl]glycine amide of 5-amino-5-deoxy-2-O-nitro-1,4:3,6-dianhydro-L-iditol]
Emax [1]: 75%
BPs (min), period of action ([2]; pigs, 3,0 mg/kg i.d.): > 120 min
BPs, difference to base value ([2]; pigs, 3,0 mg/kg i.d.): -28 mmHg
LVRDP (min), period of action ([2]; pigs, 3,0 mg/kg i.d.): > 120 min
LVRDP, difference to base value ([2]; pigs, 3,0 mg/kg i.d.): -2,0 mmHg

IC50 [1]: > 100 µM
IC50 [3]: 30 µM
SMILES: NCC(=O)N[C@H]1CO[C@H]2[C@@H]1OC[C@@H]2O[N+](=O)[O-] [Compound 6, Glycine amide of 5-amino-5-deoxy-2-O-nitro-1,4:3,6-dianhydro-L-iditol monohydrochloride]
Emax [1]: 45%
BPs (min), period of action ([2]; pigs, 1,0 mg/kg i.d.): > 180 min
BPs, difference to base value ([2]; pigs, 1,0 mg/kg i.d.): -31 mmHg
LVRDP (min), period of action ([2]; pigs, 1,0 mg/kg i.d.): > 180 min
LVRDP, difference to base value ([2]; pigs, 1,0 mg/kg i.d.): -4,0 mmHg

IC50 [1]: > 100 µM
SMILES: CC(=O)NCSC[C@H](N)C(=O)N[C@H]1CO[C@H]2[C@@H]1OC[C@@H]2O[N+](=O)[O-] [Compound 34, S-[(Acetylamino)methyl]-L-cysteine amide of 5-amino-5-deoxy-2-O-nitro-1,4:3,6-dianhydro-L-iditol monohydrochloride]
Emax [1]: 25%
BPs (min), period of action ([2]; pigs, 10,0 mg/kg i.d.): > 180 min
BPs, difference to base value ([2]; pigs, 10,0 mg/kg i.d.): -22 mmHg
LVRDP (min), period of action ([2]; pigs, 10,0 mg/kg i.d.): > 180 min
LVRDP, difference to base value ([2]; pigs, 10,0 mg/kg i.d.): -4,0 mmHg

IC50 [1]: > 100 µM
SMILES: CC(=O)NCSC[C@H](N)C(=O)O[C@@H]1CO[C@H]2[C@@H]1OC[C@@H]2O[N+](=O)[O-] [Compound 27, S-[(Acetylamino)methyl]-L-cysteine ester of 2-O-nitro-1,4:3,6-dianhydro-D-glucitol monohydrochloride]
Emax [1]: 14%
BPs (min), period of action ([4]; 3 mg/kg i.v.): > 90 min
BPs, difference to base value ([4]; 3 mg/kg i.v.): -15 mmHg
LVEDP (min), period of action ([4]; 3 mg/kg i.v.): > 90 min
LVEDP, difference to base value ([4]; 3 mg/kg i.v.): -1,0 mmHg

IC50 [1]: 32 µM
SMILES: C[C@H](N)C(=O)N[C@H]1CO[C@H]2[C@@H]1OC[C@@H]2O[N+](=O)[O-] [Compound 8, L-Alanine amide of 5-amino-5-deoxy-2-O-nitro-1,4:3,6-dianhydro-L-iditol monohydrochloride]
Emax [1]: 80%
BPs (min), period of action ([4]; 3 mg/kg i.d.): > 150 min
BPs, difference to base value ([4]; 3 mg/kg i.d.): -30 mmHg

IC50 [1]: 100 µM
SMILES: NCC(=O)O[C@H]1CO[C@H]2[C@@H]1OC[C@H]2O[N+](=O)[O-] [Compound 2, Glycine ester of 5-O-nitro-1,4:3,6-dianhydro-D-glucitol monohydrochloride]
Emax [1]: 52%
BPs (min), period of action ([4]; 3 mg/kg i.v.): > 120 min
BPs, difference to base value ([4]; 3 mg/kg i.v.): -10 mmHg
LVEDP (min), period of action ([4]; 3 mg/kg i.v.): > 120 min
LVEDP, difference to base value ([4]; 3 mg/kg i.v.): -1,0 mmHg
